Measured values from patent US7199219B1, “Polypeptides derived from vitamin D nuclear receptor, and their uses in particular for screening vitamin D analogues” (Centre National de la Recherche Scientifique, priority 1999, dated 2007).

T1: VDR (Bos taurus, UniProt Q28037)
T1 sequence (Q28037 1-426): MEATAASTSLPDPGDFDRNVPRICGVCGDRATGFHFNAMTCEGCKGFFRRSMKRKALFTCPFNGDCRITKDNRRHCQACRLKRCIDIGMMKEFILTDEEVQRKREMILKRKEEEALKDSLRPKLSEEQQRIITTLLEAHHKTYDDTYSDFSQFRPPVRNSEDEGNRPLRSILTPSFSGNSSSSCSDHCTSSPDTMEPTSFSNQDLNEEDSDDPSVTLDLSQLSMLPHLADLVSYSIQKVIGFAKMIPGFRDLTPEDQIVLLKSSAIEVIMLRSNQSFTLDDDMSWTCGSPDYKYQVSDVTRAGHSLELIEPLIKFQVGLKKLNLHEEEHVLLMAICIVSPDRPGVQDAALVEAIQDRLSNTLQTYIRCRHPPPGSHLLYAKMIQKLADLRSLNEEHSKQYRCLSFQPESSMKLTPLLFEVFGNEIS

B1: mutant VDR: polypeptide derived from human VDR in which residues 1–117 and 165–215 are suppressed (protein)
chain: DSLRPKLSEEQQRIIAILLDAHHKTYDPTYSDFCQFRPPVRVNDGGGSVTLELSQLSMLPHLADLVSYSIQKVIGFAKMIPGFRDLTSEDQIVLLKSSAIEVIMLRSNESFTMDDMSWTCGNQDYKYRVSDVTKAGHSLELIEPLIKFQVGLKKLNLHEEEHVLLMAICIVSPDRPGVQDAALIEAIQDRLSNTLQTYIRCRHPPPGSHLLYAKMIQKLADLRSLNEEHSKQYRCLSFQPECSMKLTPLVLEVFGNEIS
modifications: Description of the artificial sequence polypeptide derived from the nuclear receptor of the human vitamin D
notes: polypeptide derived from human VDR in which residues 1–117 and 165–215 are suppressed

Experiments:
[1] = target: T1, VDR; conditions: versus 1,25(OH)2 D3; cited from earlier work
[2] = system: 17 m5-TATA-CAT reporter gene responding to GAL4; assay: GAL4-LBD chimera transactivation, CAT reporter in transfected Cos cells; assay type: cell-based; conditions: Gal4 (1–147) fusion, Cos cells, 1,25(OH)2 D3 10^−7M
Excerpt: b) CAT activities of the wild-type hVDR and of the mutant hVDR; these activities are indicated on the ordinate as a percentage; column 1 corresponds to the CAT activity measured in the absence of vitamin D (VD), of wild-type (wild-type) hVDR and of mutant (truncated) hVDR; column 2 corresponds to CAT activity measured in the presence of VD and in the absence of wild-type hVDR and of mutant hVDR; column 3 corresponds to CAT activity measured in the presence of wild-type hVDR and in the absence of VD and of mutant hVDR; column 4 corresponds to CAT activity measured in the presence of VD and of wild-type hVDR and in the absence of mutant hVDR; column 5 corresponds to CAT activity measured in the presence of mutant hVDR, and in the absence of VD and of wild-type hVDR; column 6 corresponds to CAT activity measured in the presence of mutant hVDR and of VD and in the absence of wild-type hVDR.
No significant change was observed between the dissociation constants of the wild-type and mutant VDRs was observed, the values being similar to that described previously for the whole receptor (Bouillon et al., 1995). […] The chimeric proteins were expressed by transfection into Cos cells, and the transactivation was measured with an appropriate reporter responding to GAL4.

Molecule | binding affinity relative to the natural ligand [1] [times] | transactivation properties (CAT activity) compared with wild-type LBD [2]
C=C1C(=CC=C2CCCC3(C)C2CCC3C(C)CCCC(C)(C)O)CC(O)C(C)C1O (stereo not drawn) [2 α-methyl 1,25(OH)2 D3] | 4 | –
B1 | – | comparable transactivation properties
